Data as given in patent US20090042770A1, “Branched Chain Amino Acid Chelate” (priority 2007, published 2009).

What was measured:
[1] = pre-hydrolyzed BSA perfused into jejunum of human subjects (Reicht et al. 1997); cited from earlier work
[2] = Incorporation of leucine products into beverages / aqueous systems (dispersibility, separation, turbidity); type: physicochemical; conditions: for ease of dispersion when incorporated into beverages: beverages / aqueous systems

Molecule | rate of absorption [1] [%] | appearance in aqueous solution (separation, turbidity) [2] | ease of dispersion when incorporated into beverages [2]
N[C@@H](CSSC[C@H](N)C(=O)O)C(=O)O [cystine] | 3 | – | –
CC(C)C[C@H](N)C(=O)O [free leucine, (S)-2-amino-4-methylpentanoic acid, reference compound] | – | separation phenomenon | difficult to disperse
calcium leucinate [chelated leucine product] | – | did not separate or increase turbidity | much more easily dispersed
